According to ChEMBL document CHEMBL1201862, “PubChem BioAssay data set” (2004):
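A five-concentration, 48-hour dose response in 96-well plates underlies each endpoint, interpolated linearly between surrounding concentrations. At the GI50, growth is halved.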 Active and inactive are the calls of the source. Cut-off read from the data, not from the text of the source: active = GI50 up to about 1.1 µM and inactive = higher. Where a SMILES comes first, the peptide text is derived from it. The star is where a group is joined. Boc = CC(C)(C)OC(=O)*

Legend:
Assay in all cases: growth of human tumour cells (NCI), 48 h
M19-MEL = system: M19-MEL
SNB-78 = system: SNB-78
RXF 631 = system: RXF 631
MDA-MB-231 = system: MDA-MB-231
MDA-N = system: MDA-N
BT-549 = system: BT-549
Hs-578T = system: Hs-578T
MDA-MB-435 = system: MDA-MB-435
T47D = system: T47D

| SMILES | GI50 (M19-MEL) | GI50 (SNB-78) | GI50 (MDA-MB-231) | GI50 (Hs-578T) | GI50 (T47D) | further results |
| --- | --- | --- | --- | --- | --- | --- |
| Cc1ccc(N2C(=O)/C(=C3\SC(C(N)=O)=C(N)N3c3ccccc3)SC2=S)cc1 | > 100 µM (inactive) | – | – | – | – | – |
| c1ccc2c3c(ccc2c1)-c1[nH]ncc1CCO3 | 34 µM (inactive) | 29.2 µM (inactive) | – | – | – | – |
| COc1ccc(Cc2nn(C3OC(COC(C)=O)C(OC(C)=O)C(OC(C)=O)C3OC(C)=O)c(=S)n(-c3ccc(OC)cc3)c2=O)cc1 (centres undefined) | > 100 µM (inactive) | > 100 µM (inactive) | – | – | – | – |
| Cc1ccc(S(=O)(=O)OC[C@@H]2CO2)cc1 | > 100 µM (inactive) | > 100 µM (inactive) | – | – | – | GI50 (RXF 631): 68.7 µM (inactive) |
| O=C(c1ccccc1)c1nc2ccc(Cl)cc2c2c1CCCO2 | > 100 µM (inactive) | > 100 µM (inactive) | – | – | – | – |
| O=C1C(Br)=CC2([N+](=O)[O-])CCNC3=C(C4=NCCc5c[nH]c(c54)C3=O)C2=C1Br (centres undefined) | – | 2.09 µM (inactive) | – | – | – | – |
| CCCN(CCC)c1cc2c(cc1F)c(=O)c(C(=O)O)cn2-c1ccc(N2CCN(C)CC2)cn1 | – | – | 13.5 µM (inactive) | 17 µM (inactive) | 17 µM (inactive) | GI50 (MDA-N): 20.1 µM (inactive); GI50 (BT-549): 10.7 µM (inactive); GI50 (MDA-MB-435): 19.4 µM (inactive) |
| Cc1c2cnccc2c(C)c2c1c1ccccc1n2CC1CO1 (centres undefined) | 1.31 µM (inactive) | 1.83 µM (inactive) | – | – | – | – |
| CN1NC(c2ccc(Cl)cc2)=C(C#N)C(=O)CC1c1ccccc1 (centres undefined) | – | – | – | – | – | GI50 (RXF 631): > 100 µM (inactive) |
| O=C(Cc1nc2ccc(C(=O)c3ccccc3)cc2nc1O)C(=O)Nc1nc2ccccc2[nH]1 | 56.1 µM (inactive) | – | – | – | – | GI50 (RXF 631): 65.5 µM (inactive) |
| NC(=O)CCC(NCc1c2ccccc2[n+]([O-])c2ccccc12)C(=O)O (centres undefined) | 95.5 µM (inactive) | > 100 µM (inactive) | – | – | – | – |
| CN1CCC(C(O)(c2ccccc2)c2ccc(Br)cc2)CC1 (centres undefined) | – | – | 14.7 µM (inactive) | 23.8 µM (inactive) | 23 µM (inactive) | GI50 (MDA-N): 15 µM (inactive); GI50 (BT-549): > 100 µM (inactive); GI50 (MDA-MB-435): 15.5 µM (inactive) |
| COC(=O)c1cccc(N[C@@H]2c3cc4c(cc3C(c3cc(OC)c(O)c(OC)c3)[C@H]3C(=O)OCC32)OCO4)c1 (some centres undefined) | 1.28 µM (inactive) | 3.67 µM (inactive) | – | – | – | – |
| COc1cc(O)c2c(=O)cc(C3(O)C=CC(=O)C=C3)oc2c1 | – | – | 0.327 µM (active) | 0.968 µM (active) | 0.378 µM (active) | GI50 (BT-549): 0.363 µM (active) |
| c1ccc(-c2nnc(-c3nsc4ccccc34)o2)cc1 | > 100 µM (inactive) | 98.9 µM (inactive) | – | – | – | – |
| NC(C/C=C/P(=O)(O)O)C(=O)O (centres undefined) | – | – | > 100 µM (inactive) | > 100 µM (inactive) | > 100 µM (inactive) | GI50 (MDA-N): > 100 µM (inactive); GI50 (MDA-MB-435): > 100 µM (inactive) |
| COc1ccc(-c2cc(O)c3ccc(C)nc3n2)cc1 | – | – | > 100 µM (inactive) | > 100 µM (inactive) | 96.8 µM (inactive) | GI50 (BT-549): > 100 µM (inactive) |
| Nc1nc(O)c2ncn(C3C=CC(CO)O3)c2n1 (centres undefined) | – | – | > 100 µM (inactive) | > 100 µM (inactive) | > 100 µM (inactive) | GI50 (MDA-N): > 100 µM (inactive); GI50 (BT-549): > 100 µM (inactive); GI50 (MDA-MB-435): > 100 µM (inactive) |
| CC(C)[C@](O)(C(=O)OCC1=CCN2CC[C@@H](O)[C@@H]12)[C@H](C)O | > 255 µM (inactive) | > 375 µM (inactive) | – | – | – | – |
| CC(C)(C)OC(=O)NC(Cc1ccccc1)C(=O)N1CCCC1C(N)=O (stereo not drawn) (Boc-Phe-Pro-NH2; configuration not given here) | – | – | > 100 µM (inactive) | – | > 100 µM (inactive) | GI50 (MDA-N): > 100 µM (inactive); GI50 (MDA-MB-435): > 100 µM (inactive) |
